Source: patent publication US9296787B2, “Antitumor peptide and use thereof” (priority 2011, dated 2016)
Read-outs that look alike come from different tables or passages of the source. Positions of bridges follow the written chain, without caps; N, C: chain ends. Residues, ends and D or L forms follow the SMILES beside them. No end group written: not given here.

How the values were obtained:
Assay type in all cases: cell-based
HeLa cells (HeLa S3) = conditions: WST-8 absorbance after 24 hours
Experimental: (§1) As the tumor cells tested, a commercial mouse neuroblastoma cell line (N1E-115) was used. The cell line was cultured beforehand in a DMEM medium (i.e. Dulbecco MEM medium (DMEM medium, a Gibco product) containing 10% fetal bovine serum (FBS, a Gibco product), 2 mM of L-glutamine, 50 unit/mL of penicillin, and 50 μg/mL of streptomycin), and the number of cells per well in a 96-well plate was adjusted to approximately 5×10^3. The volume of the medium for this was 100 μL per well.
(§2) Subsequently, the stock solution of each sample peptide shown in Table 3 was added to each well to a peptide concentration in the well of 50 μM or 100 μM.
(§3) After the sample peptides were added as described above, the 96-well plate was placed in a CO2 incubator and cultured without agitation at 37° C. under 5% CO2. At the time of the peptide addition (at the start of treatment) and at 6 hours or 24 hours from the peptide addition and the start of incubation, the viability status of the cultured cells tested was analyzed with a commercial colorimetric assay kit. In particular, to each cell-culturing well, “water-soluble tetrazolium salt (WST-8)” was added as a colorimetric reagent; after two hours of incubation following the addition, the cell culture medium supplied with the colorimetric reagent was collected; and the level of inhibition of cell proliferation was evaluated by colorimetry, measuring the absorbance at a wavelength of 450 nm (values corrected with the absorbance at a wavelength of 620 nm, A450-A620) based on reduction of tetrazolium salt. Based on the absorbance at the time of the sample peptide addition (at the start of treatment), the percent decrease in the absorbance after 6 hours or 24 hours was determined as the cell proliferation inhibition rate (%).
HeLa cells (HeLa S3) were substituted for the tumor cells tested and the same test as Example 2 described above was carried out. In the present example, the peptides of Samples 1 to 7, 9, 10, 13, 16, 21 and 35 were used.

[1] = system: human alveolar basal epithelial adenocarcinoma cells, A549; conditions: for A450(-A620) After 24 hers: A549, peptide 50 μM, WST-8 absorbance after 24 hours
Experimental: as §1, §2, §3
Cells forming a […] (human alveolar basal epithelial adenocarcinoma cells, A549) were substituted for the tumor cells tested and the same test as Example 2 described above was carried out. In the present example, the peptides of Samples 1 to 13, 15 to 22, 24, 29, 35 and 40 were used.

[2] = system: mouse neuroblastoma cell line (N1E-115); conditions: for A450(-A620) After 6 hers: WST-8 absorbance after 6 hours; for A450(-A620) After 24 hers: WST-8 absorbance after 24 hours
Experimental: Some of the sample peptides obtained in Example 1 were tested for antitumor activity against target cultured tumor cells. Details of the assay are as described below.
as §1, §2, §3

HeLa cells = experiment: Multipolar spindle formation, DAPI and anti-tubulin immunofluorescence microscopy; conditions: after 24 hours
Experimental: In addition, the cultured cells supplemented with the peptides were observed under fluorescence microscope. Herein, as for some examples, the observations on Samples 1, 9, 13, 16, 21 and 35 are outlined. In particular, each peptide was added to a peptide concentration in a well of 50 μM (Samples 1, 9) or 100 μM (Samples 13, 16, 21, 35). After 24 hours, the cultured cells were subjected to nuclear staining with DAPI (4′,6-diamidino-2-phenylindole) and observed under fluorescence microscope. As a marker for spindles, α-tubulin was used; and the cells were tested for the presence of tubulin (i.e. the presence of spindles) by immunofluorescence, using a fluorescence-labeled anti-tubulin antibody to identify the tubulin. FIGS. 1 to 6 show merged images of DAPI-stained images and fluorescence images showing the results of the immunofluorescence assays using the fluorescence-labeled anti-tubulin antibody.

| Molecule | A450(-A620) After 24 hers (HeLa cells (HeLa S3); HeLa S3, peptide 50 μM) | A450(-A620) After 24 hers (HeLa cells (HeLa S3); HeLa S3, peptide 100 μM) | antitumor activity (tumor cell proliferation-inhibiting activity), in words ([1]; A549, 50 μM, 24 hours, summary of Table 5) | A450(-A620) After 24 hers [1] | antitumor activity (tumor cell proliferation-inhibiting activity), in words ([2]; N1E-115, 50 or 100 μM, summary of Table 3) | A450(-A620) After 6 hers ([2]; N1E-115, peptide 50 μM) | A450(-A620) After 24 hers ([2]; N1E-115, peptide 50 μM) | A450(-A620) After 6 hers ([2]; N1E-115, peptide 100 μM) | A450(-A620) After 24 hers ([2]; N1E-115, peptide 100 μM) | formation of multipolar spindles (presence of many multipolar cells) (HeLa cells; peptide 50 μM) | formation of multipolar spindles (presence of many multipolar cells) (HeLa cells; peptide 100 μM) |
| --- | --- | --- | --- | --- | --- | --- | --- | --- | --- | --- | --- |
| C[C@@H]1NC(=O)[C@H](CO)NC(=O)[C@H](CO)NC(=O)[C@@H](N)CSSC[C@@H](C(=O)O)NC(=O)[C@H](CO)NC(=O)[C@H](CCCCN)NC(=O)CNC(=O)[C@H]([C@@H](C)O)NC1=O [Sample 1, CSSATGKSC] (H-CSSATGKSC-OH; disulfide 1-9; N-terminus and C-terminus assumed) | 0.1028 | 0.0891 | high antitumor activity | 1.5487 | high antitumor activity | 0.1361 | 0.1578 | 0.1104 | 0.1119 | formation of multipolar spindles |  |
| GPHHYWYHLRLP [Sample 16, GPHHYWYHLRLP] |  |  |  | 1.7309 |  |  | 0.6912 |  | 0.6048 |  | formation of multipolar spindles |
| CC(C)C[C@@H]1NC(=O)[C@H](CO)NC(=O)[C@@H]2CCCN2C(=O)[C@@H]2CCCN2C(=O)[C@H](CCCNC(=N)N)NC(=O)[C@@H]2CCCN2C(=O)[C@@H](N)CSSC[C@@H](C(=O)O)NC(=O)[C@H](CCC(=O)O)NC1=O [Sample 9, CPRPPSLEC] (H-CPRPPSLEC-OH; disulfide 1-9; N-terminus and C-terminus assumed) | 0.1366 | 0.0892 |  | 1.8645 |  |  |  |  |  | formation of multipolar spindles |  |
